From PubChem BioAssay (NCI) come the findings set out here.

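All cell lines were grown in 96-well plates and treated with compound for 48 hours. TGI: total growth inhibition.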

Among the test systems are NCI-H522 lung; SK-MEL-28 melanoma; T-47D breast; MCF7 breast; HOP-62 NSCLC; HS 578T breast; HL-60(TB) leukemia; A549 NSCLC; SNB-19 CNS; K-562 leukemia; HT29 colon; COLO 205 colon; NCI-H226 lung; CCRF-CEM leukemia; TK-10 renal.
Assay in all cases: DTP human tumour cell line panel, 48 h

For the compound `NC(=O)N/N=C(/CC1C(=O)Oc2ccccc21)c1ccccc1O` (stereo not given), the TGI with NCI-H522 lung, in the experiment on SK-MEL-28 melanoma, in the experiment on T-47D breast, in the experiment with MCF7 breast, in the experiment with HOP-62 NSCLC and with HS 578T breast was over 100 µM in each case. Moreover, the TGI in the experiment on HL-60(TB) leukemia is 51 µM; with A549 NSCLC, over 100 µM; in the experiment on SNB-19 CNS, over 100 µM; in the experiment with K-562 leukemia, over 100 µM; in the experiment with HT29 colon, over 100 µM; in the experiment on COLO 205 colon it was over 100 µM. The figures for the TGI in the experiment on NCI-H226 lung, with CCRF-CEM leukemia and in the experiment on TK-10 renal were 82.5 µM, 56.9 µM and over 100 µM, respectively.
For `CSc1ccc(-c2cc(-c3nc4ccccc4[nH]3)no2)cc1`, the TGI in the experiment with NCI-H522 lung is 69.5 µM; with SK-MEL-28 melanoma, over 100 µM; in the experiment with T-47D breast, 37.3 µM; in the experiment with MCF7 breast, 33.8 µM; with HOP-62 NSCLC, over 100 µM; in the experiment on HS 578T breast it was over 100 µM. Moreover, the TGI was 55.3 µM in the experiment on HL-60(TB) leukemia; 90.8 µM with A549 NSCLC; over 100 µM in the experiment on SNB-19 CNS; 84.4 µM in the experiment with K-562 leukemia; 62.1 µM with HT29 colon; over 100 µM with COLO 205 colon. In addition, the TGI in the experiment with NCI-H226 lung, in the experiment on CCRF-CEM leukemia and in the experiment on TK-10 renal was over 100 µM in each case.
As for `O=C(O)CCS/C(=C\C(SCCC(=O)O)c1ccc(Cl)cc1)c1ccc(Cl)cc1` (stereo not given), the TGI in the experiment with NCI-H522 lung is over 100 µM; in the experiment with SK-MEL-28 melanoma it was over 100 µM; in the experiment on T-47D breast, over 100 µM; in the experiment with MCF7 breast, 60.9 µM; in the experiment with HOP-62 NSCLC it was over 100 µM; in the experiment on HS 578T breast, over 100 µM. Further, the TGI in the experiment on HL-60(TB) leukemia is over 100 µM; with A549 NSCLC, over 100 µM; with SNB-19 CNS it was over 100 µM; in the experiment on K-562 leukemia it was over 100 µM; in the experiment with HT29 colon, over 100 µM; in the experiment with COLO 205 colon, 43.4 µM. Besides, the TGI with NCI-H226 lung, with CCRF-CEM leukemia and in the experiment on TK-10 renal was over 100 µM throughout.

In general, TGI refers to the concentration at which net growth stops.
